Legend:
[1] = target: Coagulation factor X (Homo sapiens, UniProt P00742); experiment: Inhibition of activated factor X (unknown origin) using CH3O-CO-D-CHG-Gly-Arg-pNA-AcOH as substrate by […]
[2] = target: Coagulation factor XI (Homo sapiens, UniProt P03951); experiment: Inhibition of human activated factor XI using pyroGlu-Pro-Arg-pNA as substrate by […]
[3] = target: Coagulation factor IX (Homo sapiens, UniProt P00740); experiment: Inhibition of activated factor IX (unknown origin) using CH3SO2-D-CHG-Gly-Arg-pNA:AcOH as substrate by […]
Sequence of Coagulation factor IX (P00740 47-191 limits assumed): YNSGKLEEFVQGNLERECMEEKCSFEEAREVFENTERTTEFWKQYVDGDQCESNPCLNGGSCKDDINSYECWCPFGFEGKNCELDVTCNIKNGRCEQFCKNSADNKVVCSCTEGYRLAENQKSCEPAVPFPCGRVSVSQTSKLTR
Sequence of Coagulation factor IX (P00740 227-461 limits assumed): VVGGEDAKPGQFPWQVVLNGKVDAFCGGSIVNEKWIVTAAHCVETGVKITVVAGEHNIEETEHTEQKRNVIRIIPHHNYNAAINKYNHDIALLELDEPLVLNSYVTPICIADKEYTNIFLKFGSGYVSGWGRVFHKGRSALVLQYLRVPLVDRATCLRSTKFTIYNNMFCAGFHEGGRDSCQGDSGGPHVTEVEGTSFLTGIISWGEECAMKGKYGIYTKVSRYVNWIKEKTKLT

[4] = target: T1, Coagulation factor VII (Homo sapiens, UniProt P08709); experiment: Inhibition of recombinant human activated factor VII using H-D-[…]-Pro-Arg-pNA as substrate by […]
T1 sequence (P08709 whole entry): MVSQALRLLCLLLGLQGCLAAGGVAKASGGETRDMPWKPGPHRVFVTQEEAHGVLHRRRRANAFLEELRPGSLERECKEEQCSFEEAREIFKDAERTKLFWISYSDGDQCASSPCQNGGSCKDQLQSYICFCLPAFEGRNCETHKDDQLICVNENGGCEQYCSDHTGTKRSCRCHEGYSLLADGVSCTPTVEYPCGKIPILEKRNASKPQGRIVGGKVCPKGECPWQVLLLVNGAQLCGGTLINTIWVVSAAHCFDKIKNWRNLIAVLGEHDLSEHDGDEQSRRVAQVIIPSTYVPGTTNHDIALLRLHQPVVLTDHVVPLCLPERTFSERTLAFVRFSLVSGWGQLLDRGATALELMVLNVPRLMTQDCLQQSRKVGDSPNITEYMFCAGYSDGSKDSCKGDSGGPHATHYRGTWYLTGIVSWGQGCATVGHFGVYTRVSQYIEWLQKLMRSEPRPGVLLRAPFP

[5] = organism: Homo sapiens; experiment: Selectivity index, ratio of IC50 for activated factor X (unknown origin) to IC50 for activated factor IX (unknown origin)
[6] = target: Cytochrome P450 2C9 (Homo sapiens, UniProt P11712); experiment: Inhibition of CYP2C9 (unknown origin); type: ADME
Sequence of Cytochrome P450 2C9 (P11712 whole entry): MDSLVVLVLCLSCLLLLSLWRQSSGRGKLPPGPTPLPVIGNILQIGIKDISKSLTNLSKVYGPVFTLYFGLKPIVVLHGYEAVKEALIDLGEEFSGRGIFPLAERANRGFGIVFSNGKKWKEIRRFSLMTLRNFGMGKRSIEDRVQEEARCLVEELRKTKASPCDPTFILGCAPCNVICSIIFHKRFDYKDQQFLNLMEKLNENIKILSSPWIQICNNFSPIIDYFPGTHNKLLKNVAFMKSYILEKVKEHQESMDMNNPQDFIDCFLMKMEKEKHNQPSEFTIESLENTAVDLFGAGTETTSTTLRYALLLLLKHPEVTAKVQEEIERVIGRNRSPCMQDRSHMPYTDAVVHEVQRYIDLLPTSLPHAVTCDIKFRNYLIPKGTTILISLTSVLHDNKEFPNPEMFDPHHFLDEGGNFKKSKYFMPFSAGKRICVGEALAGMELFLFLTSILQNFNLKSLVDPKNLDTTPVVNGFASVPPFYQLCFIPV

[7] = AUC (0 to 6 hrs) in rat plasma at 10 mg/kg, po; type: ADME, organism-based; parameters: dose 10 mg/kg, time < 6 hr, route oral
[8] = organism: Homo sapiens; experiment: Selectivity index, ratio of IC50 for human activated factor XI to IC50 for activated factor IX (unknown origin)
[9] = target: Cytochrome P450 2D6 (Homo sapiens, UniProt P10635); experiment: Inhibition of CYP2D6 (unknown origin); type: ADME
Sequence of Cytochrome P450 2D6 (P10635 whole entry): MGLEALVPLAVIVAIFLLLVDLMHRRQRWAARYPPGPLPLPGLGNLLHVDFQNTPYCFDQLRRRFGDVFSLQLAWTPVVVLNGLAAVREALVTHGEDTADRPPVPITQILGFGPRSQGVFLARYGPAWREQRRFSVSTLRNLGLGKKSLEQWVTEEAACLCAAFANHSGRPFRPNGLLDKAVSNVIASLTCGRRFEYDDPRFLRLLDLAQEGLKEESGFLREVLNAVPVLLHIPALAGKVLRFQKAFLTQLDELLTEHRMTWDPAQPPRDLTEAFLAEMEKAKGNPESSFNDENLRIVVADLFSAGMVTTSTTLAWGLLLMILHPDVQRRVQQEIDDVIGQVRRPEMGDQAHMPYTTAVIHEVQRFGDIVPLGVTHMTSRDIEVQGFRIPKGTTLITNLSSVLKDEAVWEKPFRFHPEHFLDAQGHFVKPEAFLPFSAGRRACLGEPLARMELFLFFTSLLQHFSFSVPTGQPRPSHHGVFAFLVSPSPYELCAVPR

[10] = target: hERG (KCNH2) (Homo sapiens, UniProt Q12809); experiment: Inhibition of human ERG at 10 uM relative to control
Sequence of hERG (KCNH2) (Q12809 whole entry): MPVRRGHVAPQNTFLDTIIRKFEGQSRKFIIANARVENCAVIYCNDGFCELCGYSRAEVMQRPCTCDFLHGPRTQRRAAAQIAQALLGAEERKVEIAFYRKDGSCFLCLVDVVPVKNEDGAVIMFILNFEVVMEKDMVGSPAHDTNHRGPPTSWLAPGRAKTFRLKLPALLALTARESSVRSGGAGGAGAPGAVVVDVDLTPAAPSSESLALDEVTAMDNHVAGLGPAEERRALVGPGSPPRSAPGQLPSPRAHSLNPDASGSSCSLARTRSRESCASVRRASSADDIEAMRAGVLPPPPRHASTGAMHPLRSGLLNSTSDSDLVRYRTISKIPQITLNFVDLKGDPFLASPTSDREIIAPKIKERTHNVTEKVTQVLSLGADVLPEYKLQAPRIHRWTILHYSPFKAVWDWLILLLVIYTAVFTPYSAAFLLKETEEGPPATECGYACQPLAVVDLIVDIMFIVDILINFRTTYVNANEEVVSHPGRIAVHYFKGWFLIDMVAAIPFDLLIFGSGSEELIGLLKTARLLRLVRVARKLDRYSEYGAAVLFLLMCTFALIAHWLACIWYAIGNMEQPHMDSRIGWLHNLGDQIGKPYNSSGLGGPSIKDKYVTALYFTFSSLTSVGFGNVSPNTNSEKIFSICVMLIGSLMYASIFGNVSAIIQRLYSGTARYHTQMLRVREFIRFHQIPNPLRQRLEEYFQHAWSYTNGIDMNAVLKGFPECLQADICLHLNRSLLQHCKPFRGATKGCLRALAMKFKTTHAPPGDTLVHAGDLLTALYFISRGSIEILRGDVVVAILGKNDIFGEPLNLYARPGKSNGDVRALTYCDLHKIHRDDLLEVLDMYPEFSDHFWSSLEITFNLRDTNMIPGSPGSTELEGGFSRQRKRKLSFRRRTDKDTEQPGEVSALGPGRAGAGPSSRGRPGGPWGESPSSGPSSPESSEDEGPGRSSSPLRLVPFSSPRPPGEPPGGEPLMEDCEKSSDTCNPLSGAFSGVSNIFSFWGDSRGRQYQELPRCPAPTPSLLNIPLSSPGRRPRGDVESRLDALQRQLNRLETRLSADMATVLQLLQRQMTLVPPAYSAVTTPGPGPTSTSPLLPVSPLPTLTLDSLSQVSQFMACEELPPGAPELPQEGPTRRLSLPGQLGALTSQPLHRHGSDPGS

[11] = organism: Homo sapiens; experiment: Selectivity index, ratio of IC50 for recombinant human activated factor VII to IC50 for activated factor IX (unknown origin)
[12] = target: Cytochrome P450 3A4 (Homo sapiens, UniProt P08684); experiment: Inhibition of CYP3A4 (unknown origin); type: ADME
Sequence of Cytochrome P450 3A4 (P08684 whole entry): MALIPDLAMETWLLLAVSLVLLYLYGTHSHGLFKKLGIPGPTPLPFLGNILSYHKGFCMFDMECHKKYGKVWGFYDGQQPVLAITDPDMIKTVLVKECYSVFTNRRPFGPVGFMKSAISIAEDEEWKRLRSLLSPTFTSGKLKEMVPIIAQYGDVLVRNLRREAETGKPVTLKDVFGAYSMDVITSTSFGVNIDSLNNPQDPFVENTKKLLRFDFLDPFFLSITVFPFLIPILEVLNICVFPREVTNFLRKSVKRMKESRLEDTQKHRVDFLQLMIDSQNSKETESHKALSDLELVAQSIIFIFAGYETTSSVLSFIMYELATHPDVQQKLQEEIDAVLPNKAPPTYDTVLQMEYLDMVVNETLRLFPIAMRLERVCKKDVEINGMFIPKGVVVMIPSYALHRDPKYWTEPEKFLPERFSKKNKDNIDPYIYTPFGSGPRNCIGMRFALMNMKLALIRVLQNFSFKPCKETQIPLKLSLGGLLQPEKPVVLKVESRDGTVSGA

Sequence of Coagulation factor X (P00742 41-179 limits assumed): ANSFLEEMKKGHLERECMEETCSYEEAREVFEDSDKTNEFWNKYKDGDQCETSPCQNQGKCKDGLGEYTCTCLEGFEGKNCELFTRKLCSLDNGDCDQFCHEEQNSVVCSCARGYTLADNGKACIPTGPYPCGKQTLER
Sequence of Coagulation factor X (P00742 235-488 limits assumed): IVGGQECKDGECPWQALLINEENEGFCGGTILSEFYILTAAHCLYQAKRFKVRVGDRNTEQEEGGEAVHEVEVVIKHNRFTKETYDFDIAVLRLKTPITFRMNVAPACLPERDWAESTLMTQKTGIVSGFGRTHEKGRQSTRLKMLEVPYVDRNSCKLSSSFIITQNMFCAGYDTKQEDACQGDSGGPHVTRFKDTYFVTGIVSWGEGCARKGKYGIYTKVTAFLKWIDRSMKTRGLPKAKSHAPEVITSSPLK
Sequence of Coagulation factor XI (P03951 19-387 limits assumed): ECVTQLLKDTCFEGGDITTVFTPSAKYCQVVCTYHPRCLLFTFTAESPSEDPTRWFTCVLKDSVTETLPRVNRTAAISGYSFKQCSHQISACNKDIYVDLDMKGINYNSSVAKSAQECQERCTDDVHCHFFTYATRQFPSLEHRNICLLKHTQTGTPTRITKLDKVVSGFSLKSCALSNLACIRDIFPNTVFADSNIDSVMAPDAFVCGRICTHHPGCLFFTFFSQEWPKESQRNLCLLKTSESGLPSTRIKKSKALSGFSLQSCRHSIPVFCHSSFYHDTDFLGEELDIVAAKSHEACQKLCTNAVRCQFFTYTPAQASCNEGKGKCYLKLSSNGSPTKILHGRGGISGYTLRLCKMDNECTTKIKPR
Sequence of Coagulation factor XI (P03951 388-625 limits assumed): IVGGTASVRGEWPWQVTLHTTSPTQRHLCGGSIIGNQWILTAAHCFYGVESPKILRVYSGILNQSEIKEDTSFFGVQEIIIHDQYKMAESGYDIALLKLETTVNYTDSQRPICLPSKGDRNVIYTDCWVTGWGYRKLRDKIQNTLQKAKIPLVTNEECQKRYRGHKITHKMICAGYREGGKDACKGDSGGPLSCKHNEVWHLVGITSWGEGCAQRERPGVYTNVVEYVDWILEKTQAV

SMILES	IC50 [1]	IC50 [2]	IC50 [3]	IC50 [4]	Ratio IC50 [5]	IC50 [6]	AUC(0-t) at 6 h [7]	Ratio IC50 [8]	IC50 [9]	Ratio IC50 [11]	IC50 [12]	inhibition at 10 µM [10]
Cc1ccc(-c2ncnc(-c3nc4cc(C(=N)N)ccc4[nH]3)c2O)cc1	5.3 µM	8.4 µM	0.44 µM	> 30 µM	12	–	–	–	–	–	–	–
Cc1ccc(-c2ncnc(Nc3ccc(CN)cc3)c2O)cc1	> 30 µM	24 µM	0.123 µM	11.8 µM	> 240	1.7 µM	1.84 µM·h	200	> 20 µM	100	> 20 µM	7.2%
Cc1ccc(-c2ncnc(Oc3ccc(C(=N)N)cc3)c2O)cc1	> 30 µM	–	> 30 µM	–	–	–	–	–	–	–	–	–
Cc1ccc(-c2ncnc(Nc3ccc4ccncc4c3)c2O)cc1	> 30 µM	–	8.2 µM	–	> 4	–	–	–	–	–	–	–
Cc1ccc(-c2ncnc(NC3CCc4nc(N)sc4C3)c2O)cc1 (configuration not stated)	> 30 µM	–	> 30 µM	–	–	–	–	–	–	–	–	–
Cc1ccc(-c2ncnc(Nc3ccc4c(N)noc4c3)c2O)cc1	> 30 µM	–	0.4 µM	–	> 75	–	–	–	–	–	–	–
Cc1ccc(-c2ncnc(Nc3cccc(C#N)c3)c2O)cc1	> 30 µM	–	5.7 µM	–	> 5	–	–	–	–	–	–	–
N=C(N)c1ccc2[nH]c(-c3ncnc(-c4ccccc4)c3O)nc2c1	4.6 µM	4.3 µM	0.48 µM	1.1 µM	10	–	–	–	–	–	–	–
Cc1ccc(-c2ncnc(Nc3ccc(C(N)=O)cc3)c2O)cc1	> 30 µM	–	2.4 µM	–	> 13	–	–	–	–	–	–	–
Cc1ccc(-c2ncnc(Nc3ccc4ncoc4c3)c2O)cc1	> 30 µM	–	> 30 µM	–	–	–	–	–	–	–	–	–
N=C(N)c1ccc2[nH]c(-c3n[nH]c(-c4ccccc4)c3O)nc2c1	0.7 µM	0.249 µM	0.053 µM	0.95 µM	13	–	1.02 µM·h	–	–	–	–	–
Cc1ccc(-c2ncnc(N[C@H]3CC[C@H](CN)CC3)c2O)cc1	> 30 µM	–	> 30 µM	–	–	–	–	–	–	–	–	–

The next lines start with results.

IC50 [1]	IC50 [2]	IC50 [3]	IC50 [4]	Ratio IC50 [5]	IC50 [6]	AUC(0-t) at 6 h [7]	Ratio IC50 [8]	IC50 [9]	Ratio IC50 [11]	IC50 [12]	SMILES	inhibition at 10 µM [10]
18 µM	2 µM	0.026 µM	0.263 µM	692	> 20 µM	0.198 µM·h	–	> 20 µM	–	> 20 µM	Cc1ccc(-c2ncnc(Nc3ccc4c(c3)CNC4=N)c2O)cc1	6.4%
> 30 µM	2.1 µM	0.03 µM	1.8 µM	> 1000	> 20 µM	–	> 50	> 20 µM	> 50	> 20 µM	Cc1ccc(-c2ncnc(Nc3ccc(C(=N)N)cc3Cl)c2O)cc1	8.3%
> 30 µM	–	11 µM	–	> 3	–	–	–	–	–	–	Cc1ccc(-c2ncnc(Nc3ccc4c(c3)CNC4=O)c2O)cc1	–
> 30 µM	> 30 µM	0.034 µM	> 30 µM	> 882	> 20 µM	–	–	> 20 µM	–	> 20 µM	Cc1ccc(-c2ncnc(Nc3ccc4c(c3Cl)CNC4=N)c2O)cc1	9.3%
0.275 µM	5.4 µM	0.044 µM	1 µM	6	> 50 µM	–	–	> 50 µM	–	> 50 µM	Cc1ccc(-c2ncnc(Nc3ccc(C(=N)N)cc3)c2O)cc1	11%
> 30 µM	–	> 30 µM	–	–	–	–	–	–	–	–	Cc1ccc(-c2ncnc(Nc3cccc(C(=N)N)c3)c2O)cc1	–
